This note sets out measurements from ChEMBL document CHEMBL1201862, “PubChem BioAssay data set” (2004).

Experiment in all cases: NCI-60 cell line screen, 48 h
In test [1] the test system is CCRF-CEM.
Test [2] deals with U-251.
In test [3] the test system is DU-145.
Test [4] has as its system Malme-3M.
The subject of test [5] is SNB-19.
The test system of test [6] is SN12C.
In test [7] the test system is NCI-H23.
In test [8] the test system is HT-29.
For test [9], the system named is HCC 2998.
Test [10] deals with NCI-H522.
Test [11] deals with CAKI-1.
The test system of test [12] is MOLT-4.
In test [13] the test system is SK-OV-3.
Test [14] relates to UACC-62.
The subject of test [15] is HL-60.
Test [16] deals with PC-3.
The subject of test [17] is HOP-62.
The test system of test [18] is SNB-75.
For test [19], the system named is OVCAR-8.
In test [20] the test system is SF-268.

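96-well plates; 48 h exposure; 5 concentrations. Endpoints by linear interpolation between flanking doses. Not reached: highest tested concentration assigned. The concentration for 50% growth inhibition is given as GI50.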 Activity calls are given as the source filed them. No stated cut-off is given here; in the data, active = GI50 up to about 1.1 µM and inactive = higher.

Turning to `CS(=O)(=O)c1nc(-c2cc3c(c(S(C)(=O)=O)n2)CCC3)cc2c1CCCCC2`, the GI50 was > 100 µM (inactive) in test [1]; 41.9 µM (inactive) in [2]; > 100 µM (inactive) in test [3]; 34.5 µM (inactive) in test [4]; 34.4 µM (inactive) in test [5]; > 100 µM (inactive) in [6]. Besides, the GI50 in [7] is 41.4 µM (inactive); in [8] it was > 100 µM (inactive); in [9], > 100 µM (inactive); in [10], 15.2 µM (inactive); in test [11], 21 µM (inactive); in test [12], > 100 µM (inactive). Further, the GI50 is 11.9 µM (inactive) in [13]; 22.9 µM (inactive) in test [14]; > 100 µM (inactive) in [15]; > 100 µM (inactive) in test [16]; 16.9 µM (inactive) in [17]; 6.37 µM (inactive) in [18]. For the same compound, the GI50 was 66.5 µM (inactive) in test [19] and 14.8 µM (inactive) in [20].

As to `Nc1nc(Cl)c2ncn(Cc3ccc(CCl)cc3)c2n1`, the GI50 in test [1] is 2.68 µM (inactive); in test [2] it was 3.56 µM (inactive); in test [3], 6.59 µM (inactive); in [4], 11.3 µM (inactive); in test [5] it was 6.78 µM (inactive); in test [6], 12.2 µM (inactive). For the same compound, the GI50 in [7] was 12 µM (inactive); in test [8], 9.73 µM (inactive); in [9] it was 0.497 µM (active); in [10], 10.7 µM (inactive); in test [11] it was 2.49 µM (inactive); in test [12], 2.96 µM (inactive). The GI50 in [13] is 15.1 µM (inactive); in test [14], 2.23 µM (inactive); in test [15], 6.81 µM (inactive); in [16] it was 7.45 µM (inactive); in [17] it was 6.85 µM (inactive); in test [18] it was 23.1 µM (inactive). The GI50 in test [19] is 5.13 µM (inactive); in test [20], 1.88 µM (inactive).

Consider `CSc1ccc(-c2cc(-c3nc4ccccc4[nH]3)nc3[nH]c(-c4nc5ccccc5[nH]4)cc(=O)c23)cc1`, for which the GI50 in test [1] is 73.6 µM (inactive); in [2], 93.8 µM (inactive); in test [3] it was > 100 µM (inactive); in test [4], > 100 µM (inactive); in [5], > 100 µM (inactive); in test [6] it was 71.1 µM (inactive). For the same compound, the GI50 was > 100 µM (inactive) in [7]; 68.5 µM (inactive) in [8]; 5.33 µM (inactive) in test [9]; > 100 µM (inactive) in [10]; > 100 µM (inactive) in [11]; > 100 µM (inactive) in [12]. Besides, the GI50 was > 100 µM (inactive) in test [13]; 92.5 µM (inactive) in [14]; > 100 µM (inactive) in test [15]; > 100 µM (inactive) in [16]; 84.5 µM (inactive) in test [17]; 56.2 µM (inactive) in test [18]. The GI50 was 71 µM (inactive) in [19] and 49.2 µM (inactive) in test [20].

Turning to `Cc1ccc(-n2c(=O)c3nn4c(=O)n(-c5ccc(C)cc5)c(=O)c4nn3c2=O)cc1`, the GI50 in test [1], in test [2], in test [3], in test [4], in test [5] and in [6] was > 100 µM (inactive) throughout. Also, the GI50 in test [7], in [8], in [9], in [10], in test [11] and in test [12] was > 100 µM (inactive) throughout. Further, the GI50 in [13] was > 100 µM (inactive); in [14], > 100 µM (inactive); in [15], > 100 µM (inactive); in [16] it was > 100 µM (inactive); in test [17], > 100 µM (inactive); in [18], 58.3 µM (inactive). Also, the GI50 in test [19] and in test [20] was > 100 µM (inactive) throughout.

As to `Cn1c(=O)sc2cc(C(=S)N3CCOCC3)ccc21`, the GI50 is 28.6 µM (inactive) in test [1]; > 59.7 µM (inactive) in test [2]; > 100 µM (inactive) in test [3]; 3.48 µM (inactive) in test [4]; > 100 µM (inactive) in test [5]; > 100 µM (inactive) in [6]. The GI50 in [7] was > 100 µM (inactive); in test [8], > 79.3 µM (inactive); in [9], > 100 µM (inactive); in [10], 87.3 µM (inactive); in [11] it was > 100 µM (inactive); in [12] it was 39.9 µM (inactive). In addition, the GI50 was > 100 µM (inactive) in test [13]; > 100 µM (inactive) in [14]; 24.7 µM (inactive) in test [15]; > 100 µM (inactive) in [16]; > 100 µM (inactive) in test [17]; > 34 µM (inactive) in test [18]. Further, the figures for the GI50 in [19] and in test [20] were > 47.1 µM (inactive) and > 100 µM (inactive), respectively.

In the case of `C=C(NC(=O)C(=C)NC(=O)c1csc(C2=NC3c4csc(n4)C4NC(=O)c5csc(n5)C(C(C)(O)C(C)O)NC(=O)C5CSC(=N5)/C(=C/C)NC(=O)C(C(C)O)NC(=O)c5csc(n5)C3(CC2)NC(=O)C(C)NC(=O)C(=C)NC(=O)C(=C)NC(=O)C(C(C)C)NC2C=Cc3c(C(C)O)cc(nc3C2O)C(=O)OC4C)n1)C(N)=O` (stereo not given), the GI50 is 0.25 µM (active) in test [1]; 0.877 µM (active) in test [2]; 20.9 µM (inactive) in [3]; 0.239 µM (active) in [4]; 33 µM (inactive) in test [5]; 3.75 µM (inactive) in test [6]. The GI50 in [7] was 7.13 µM (inactive); in [8], 1.32 µM (inactive); in [9], 16.1 µM (inactive); in test [10], 0.158 µM (active); in [11], 3.69 µM (inactive); in test [12], 0.364 µM (active). Also, the GI50 was 19.6 µM (inactive) in [13]; 0.54 µM (active) in test [14]; 2.24 µM (inactive) in test [15]; 6.89 µM (inactive) in test [16]; 19.6 µM (inactive) in test [17]; > 30.2 µM (inactive) in test [18]. Further, the GI50 in [19] was 0.935 µM (active); in [20], 7.19 µM (inactive).

As for `Cc1nc2ccc(NCCN(C)C)c3c(=O)c4ccccc4n1c23`, the GI50 is 1.22 µM (inactive) in [1]; 2.22 µM (inactive) in test [2]; 2.07 µM (inactive) in [3]; 4.14 µM (inactive) in test [4]; 4.19 µM (inactive) in test [5]; 2.31 µM (inactive) in [6]. The GI50 was 2.97 µM (inactive) in test [7]; 1.02 µM (active) in test [8]; 2.96 µM (inactive) in [9]; 1.52 µM (inactive) in test [10]; 2.76 µM (inactive) in test [11]; 0.348 µM (active) in test [12]. For the same compound, the GI50 in [13] is 3.96 µM (inactive); in test [14], 5.02 µM (inactive); in test [15], 3.37 µM (inactive); in [16], 1.1 µM (active); in test [17], 1.51 µM (inactive); in [18], 3.5 µM (inactive). In addition, the results for the GI50 in [19] and in test [20] were 0.914 µM (active) and 3.48 µM (inactive), respectively.
